Results taken from US5877210A, “Phosphotyrosine phosphatase inhibitors or phosphotyrosine kinase activators for controlling cellular proliferation” (priority 1995, dated 1999).
“Also recorded” adds a separate entry of the source.

Columns and labels:
[1] = tested on: i.p. B16 murine melanoma; format: in vivo
Experimental: The cumulative dose MTD of 54 mg/kg was similar to the 60 mg/kg cumulative MTD observed in the last M109 experiment.

[2] = tested on: Fyn; test: Src-family kinase activity from treated Ramos cells; format: cell-based, human; settings: Ramos cells treated with BMLOV for 15 hours
Experimental: (§1) Treatment of Ramos cells with BMLOV for 15 hours inhibited the activity of the Src kinases Lyn and Fyn from the cells by approximately 50%.

[3] = tested on: Lyn; test: as above; format: cell-based, human; settings: Ramos cells treated with BMLOV for 15 hours
Experimental: as §1

[4] = tested on: Ramos B cells; test: Viability by propidium iodide staining and flow cytometry; format: cell-based, human; settings: 25 μM BMLOV, 4 days (FIG. 15B) or 5 d (FIG. 30)
From the text: The extent to which the T cells were being killed by BMLOV treatment relative to the Ramos B cells was therefore examined. […] The percentage of cells in each quadrant is indicated. The lower right quadrant contains the viable cells.

[5] = tested on: Ramos B cells; test: TUNEL analysis of fragmented DNA by flow cytometry; format: cell-based, human; settings: 25 or 50 μM BMLOV, 48 h
Experimental: (§2) TUNEL (TdT-mediated dUTP-biotin nick end labeling) staining for the in situ detection of fragmented DNA was as previously described (Y. Gavrieli et al., J. Cell Biol. 119:493-501 (1992)) with modification to permit detection by flow cytometry. Cells (2×106) were washed with PBS and resuspended in 4% formaldehyde in PBS at 4° C. for 4 h for fixation. Cells were rinsed in PBS and permeabilized by resuspension in 70% ethanol in PBS for 1 h at 4° C. Cells were rinsed with PBS, rinsed with TdT buffer (30 mM Tris-HCl, pH 7.2, 140 mM cacodylate, 1 mM cobalt chloride) and resuspended in 150 μl TdT buffer. Biotin-dUTP (SIGMA, St. Louis, Mo.) was added to 15 μM and terminal deoxynucleotidyl transferase (TdT, Boehringer Mannheim) was added to 0.6 U/μl. DNA synthesis was for 1 h at 37° C. and was stopped by the addition of 1 ml cold PBS. Cells were rinsed twice with PBS and resuspended in 500 μl of PBS containing 5 μg of fluorescein-avidin at 4° C. for 16 h. Cells were washed twice in PBS and resuspended in 400 μl of PBS for flow cytometry. Cells were analyzed using a Becton-Dickinson FACScan flow cytometer and LYSIS analysis software.
(§3) The extent of DNA fragmentation and the cell type selective activity was quantitated by TUNEL analysis (Y. Gavrieli et al., (1992), supra); FIG. 28). […]

[6] = tested on: Jurkat T cells; test: TUNEL analysis of fragmented DNA by flow cytometry; format: cell-based, human; settings: 25 or 50 μM BMLOV, 48 h
Experimental: as §2, §3

[7] = tested on: mixed lymphocyte response cultures dependent on CD28 costimulation; test: Mixed lymphocyte response cultures; format: cell-based; settings: 0.5 to 5 μM BMLOV
Experimental: Mixed lymphocyte response cultures that are dependent on CD28 costimulation were inhibited by over 50% by 0.5 to 5 μM BMLOV (FIG. 8).

[8] = tested on: T cell line CEM; test: Clonogenic assay in methylcellulose; format: cell-based, human; settings: dose as high as 100 μM BMLOV
Experimental: The selective cytotoxicity of BMLOV was examined in clonogenic assays. Cells were grown in methylcellulose media and the number of colonies formed after seven days of treatment with various doses of the drug were determined. The clonogenic assays were performed with six replicates for each treatment as described [F. M. Uckun et al., J. Exp. Med. 163:347-368 (1986); F. M. Uckun & J. A. Ledbetter, Proc. Natl. Acad. Sci. USA 85:8603-8607 (1988)). The data is given plus/minus the standard error of the mean.

[9] = tested on: PLCγ2; test: PLCγ2 tyrosine phosphorylation in Ramos B cells; format: cell-based, human; settings: 16 h, dose-dependent, no antigen receptor stimulation
Experimental: Syk is essential for the tyrosine phosphorylation of PLCγ2 that leads to Ca^2+ signaling in B cells following antigen receptor stimulation (M. Takata et al., EMBO J. 13:1341-1349 (1994)). […] In the experiments shown in FIG. 24, Ramos B cells were treated 16 h with the indicated concentrations of BMLOV and then stimulated for 2 min with α-μ. Antibody binding in immunoblots was detected by ECL. […] The extent of tyrosine phosphorylation of PLCγ2 induced by BMLOV was substantially more than that observed following a maximal sIgM stimulation, and no additional tyrosine phosphorylation of PLCγ2 could be induced by sIgM stimulation of BMLOV treated cells.

`[Na+].[O]=[V-]12([O][O]1)[O][O]2.c1cnc2c(c1)ccc1cccnc12` [pV(phen), sodium (1,10-phenanthroline) oxodiperoxovanadium (V)] was tested, and the “Max. % T/C” value ([1]; Expt. 799, 6 mg/kg/inj (MTD reached), qd 1→9, ip) was 152% and the “maximum tolerated dose (MTD)” value ([1]; mouse, in vivo, ip) was 6 mg/kg per injection.
For `Cc1occc(=O)c1[O-].Cc1occc(=O)c1[O-].[O]=[V+2]` [BMLOV, Bis(maltolato)oxovanadium (IV)], the “inhibition of kinase activity” value [2] was “approximately 50%”, the “inhibition of kinase activity” value [3] was “approximately 50%” and the “killing by BMLOV, in words” value [4] was “substantially more sensitive to killing; also recorded: completely killed”. For the same compound, the “DNA fragmentation by TUNEL” value [5] was “extensively induced in a dose dependent manner”, the “DNA fragmentation by TUNEL” value [6] was “little labeling was observed” and the “inhibition of mixed lymphocyte response” value [7] was “over 50%”. The “inhibition of clonogenic growth” value [8] was “inhibited only moderately” and the “tyrosine phosphorylation of PLCγ2” value [9] was “strongly induced the tyrosine phosphorylation of PLCγ2”.
